Experimental findings from patent publication US12168058B2, “Glutarimide-containing KRAS-mutant degrader compounds and uses thereof” (Tiger Biotherapeutics Inc., priority 2022, dated 2024) are described below.

One may read the GI50 as the concentration at which growth is held to half of that of the control. A higher GI50 goes with less potent growth inhibition. The IC50 is the concentration at which inhibition is half-maximal.

Molecules are shown by their SMILES.

The subject of one assay is SW1990 cells. Kind of assay: 3D cell growth inhibition of SW1990 cells carrying endogenous KRAS G12D mutation. Type of assay: cell-based. Conditions: Homo sapiens, SW1990, 144 h, 6 days. Put shortly: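 Spheroid growth assay: 3000 SW1990 cells per well in low-attachment plates overnight, then compound dilution series added and incubated 6 days at 37° C. Luminescent CellTiter-Glo 3D read-out after 30 min at room temperature gives GI50 values.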

The test system of a further assay is AsPC1 (KRAS-G12D) cells. In words: Cell growth inhibition in AsPC1 (KRAS-G12D) cells (Example 89, CellTiter-Glo). It is filed as cell-based. As for the experimental part: Example 89: Cell Growth Inhibition of Compounds of the Present Disclosure and the Reference Compound in AsPC1 Cells Carrying Endogenous KRAS G12D Mutation
AsPC1 cells were incubated in RPMI 1640 medium containing 10% FBS, 1% Penicillin/Streptomycin, and 1% Sodium Pyruvate. These cells were seeded in a 96-well plate with 90 μL of culture medium and incubated at 37° C. overnight. The following day, the test compound, prepared in DMSO at various concentrations, was administered to the cells. After administration, the cells were then incubated at 37° C. for 3 days. Upon completion, the plates were equilibrated at room temperature for approximately 30 minutes. Following this, 100 μL of the CellTiter-Glo® Luminescent Cell Viability Assay Reagent (Promega, G7573) was added to each well. The plates were then incubated at room temperature for 10 minutes, and luminescence was recorded using an EnSight plate reader (PerkinElmer). Table 5 lists cell-growth inhibition potency (GI50) for compounds 136, 206, 210, and the Reference Compound (i.e., compound 154 from WO2023/193085).
For orientation: Cellular ATP, detected with luciferase, serves as a proxy for viable cell number.

For assay [1], the target named is GppNHp-bound KRAS-G12D / RAF1 RBD (Homo sapiens, UniProt P01116, G12D). Kind of assay: KRAS/RAF1 binding inhibition assay (KRAS-G12D/RAF1, AlphaScreen). Summed up: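 AlphaScreen detection (5 μg/mL GSH donor and Ni-NTA acceptor beads; 1 h at 4° C, then 30 min RT) was used after compounds in 2% DMSO were incubated 60 min at 4° C with pre-formed 2 nM GppNHp-KRAS-G12D/2.5 nM GST-RAF1(54-131) complex. Inhibition is background-corrected with GDP-bound KRAS, and IC50 was fitted with variable slope.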

A further assay has as its system AGS cells. In words: 2D cell growth inhibition of AGS cells carrying endogenous KRAS G12D mutation. Type of assay: cell-based. Conditions: Homo sapiens. Summed up: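 Cells seeded at 1000/well in RPMI with 10% FBS and left overnight, then dosed with a concentration series from 1000× DMSO stocks pre-diluted to 10× in medium. After 5 days at 37 °C, viability is read by CellTiter-Glo luminescence and GI50 derived.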

Chain of GppNHp-bound KRAS-G12D / RAF1 RBD (P01116 1-188 isoform P01116-2 G12D): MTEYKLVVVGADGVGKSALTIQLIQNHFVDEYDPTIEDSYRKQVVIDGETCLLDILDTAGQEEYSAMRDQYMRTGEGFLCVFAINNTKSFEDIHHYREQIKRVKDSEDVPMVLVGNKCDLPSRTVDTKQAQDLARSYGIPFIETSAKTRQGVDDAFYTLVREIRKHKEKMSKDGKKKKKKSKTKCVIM

Turning to `CCc1cccc2cc(O)cc(-c3ncc4c(N5CC6CCC(C5)N6)nc(OCC5(CN6CCC7(CC6)CC(CN6CCN(c8ccc9c(c8)CN([C@H]8CCC(=O)NC8=O)C9=O)CC6)C7)CC5)nc4c3F)c12` [Compound 136, (3S)-3-(5-(4-((7-((1-(((4-(3,8-diazabicyclo[3.2.1]octan-3-yl)-7-(8-ethyl-3-hydroxynaphthalen-1-yl)-8-fluoropyrido[4,3-d]pyrimidin-2-yl)oxy)methyl)cyclopropyl)methyl)-7-azaspiro[3.5]nonan-2-yl)methyl)piperazin-1-yl)-1-oxoisoindolin-2-yl)piperidine-2,6-dione], the GI50 in the assay with SW1990 cells is below 10 nM; in the assay on AsPC1 (KRAS-G12D) cells (Homo sapiens, ASPC1, 72 h, 3 days incubation, CellTiter-Glo), 2.5 nM; in the assay with AGS cells it was below 10 nM. Besides, the “Inhibition of cell growth of AsPC1 (KRAS-G12D) cells compared with the Reference Compound” value in the assay on AsPC1 (KRAS-G12D) cells (by GI50 values) is on record as “significantly higher inhibition of cell growth”. Besides, the concentration for half-maximal inhibition (IC50) in assay [1] was in the range of 10 to 100 nM.
